Assays:
COX2 promoter = experiment: COX-2 promoter-dependent reporter luciferase gene expression; type: cell-based, human; details: 0.1 nM TNF 24 h
Method: H1299 cells were transiently transfected with a COX-2 promoter plasmid linked to the luciferase gene and then treated with the indicated concentrations of honokiol. After 24 h in culture with 0.1 nM TNF, cell supernatants were collected and assayed for luciferase activity. Results are expressed as fold activity over the activity of the vector control. Values are means ±SD (indicated as error bars) of triplicate cultures for a representative experiment out of 3 independent ones showing similar results.
COX-2 promoter-dependent reporter luciferase gene expression. COX-2 promoter activity was examined as described elsewhere (Shishodia, S., et al. 2003 Cancer Res. 63:4375-4383). To further determine the effect of honokiol on COX-2 promoter, A293 cells were seeded at a concentration of 1.5×10^5 cells per well in six-well plates. […] The COX-2 promoter (−375 to +59), which was amplified from human genomic DNA by using the primers 5′-[sequence]-3′ (sense) and 5′-[sequence]-3′ (antisense). After a 6-h exposure to the transfection mixture, the cells were incubated in medium containing honokiol for 12 h. The cells were exposed to TNF (0.1 nM) for 24 h and then harvested. Luciferase activity was measured by using the Luclite luciferase assay system (Perkin-Elmer, Boston, Mass.) according to the manufacturer's protocol and detected by luminometer (Victor 3, Perkin-Elmer).

[1] = tested on: cyclin D1, p27Kip1, p21Cip1/WAF1, EGFR, AKT, ERK2 in MDA-MB-231 cells; experiment: Western blot of cell cycle and growth signaling proteins; type: cell-based; details: MDA-MB-231, 20, 40 and 60 μM, 24 hours
Method: Western blot analysis: Cells were harvested and lysed for total protein extraction in a buffer containing 50 mM Tris-Cl pH 7.4, 150 mM NaCl and 2% NP-40 together with a protease inhibitor cocktail (Comp). Approximately 50-150 μg of protein extract was loaded on a 4-15% polyacrylamide gels (Bio-Rad, Hercules, Calif.), separated electrophoretically and blotted from the gel onto PVDF membrane. The membranes were then blocked with a blocking buffer (5% non-fat dry milk in 1×TBST, i.e. 20 mM Tris-HCl, pH 7.6 containing 0.8% NaCl and 0.1% Tween-20) at room temperature for 1 h. The membranes were incubated with the primary antibodies in blocking buffer, followed by incubation with HRP-labeled secondary antibodies. Immunoactivity was detected with horseradish peroxidase-conjugated secondary antibody and visualized by Enhanced Chemiluminescence (Pierce, Rockford, Ill.). Quantification of the results was performed using AlphaImager 2000 (Alpha Innotech, San Leandro, Calif.).
(§1) HNK slows cell cycle in breast cancer cell lines. The effects of HNK (10 μM or 30 μM HNK for 24 hours) on cell cycle were evaluated in MCF-7 and MDA-MB-231 cells. These doses of HNK are less than the LC50 for both cell lines. […] Expression of proteins involved in G1 cell-cycle regulation (massgue) was examined in MDA-MB-231 cells using Western analysis.
HNK inhibits growth signaling pathways. […]

[2] = tested on: NF-kB-regulated gene products in H1299 cells; experiment: Western blot of TNF-induced NF-kB-regulated gene products; type: cell-based, human
Method: (A) Honokiol inhibits COX-2, MMP-9, ICAM-1, and VEGF expression induced by TNF. H1299 cells (2×10^6/ml) were left untreated or incubated with […] honokiol for 12 h and then treated with 0.1 nM TNF for different times. Whole-cell extracts were prepared, and […] of the whole-cell lysate was analyzed by Western blotting using antibodies against VEGF, MMP-9, and COX-2. (B) Honokiol inhibits cyclin D1 and c-myc expression induced by TNF. H1299 cells (2×10^6/ml) were left untreated or incubated with […] honokiol for 12 h and then treated with 0.1 nM TNF for different times. Whole-cell extracts were prepared, and […] of the whole-cell lysate was analyzed by Western blotting using antibodies against cyclin D1 and c-myc. […] (C) Honokiol inhibits the expression of anti-apoptotic gene products cIAP1, cIAP2 Bcl-x1, Bcl-2, cFLIP, TRAF2, and survivin. H1299 cells (2×10^6/ml) were left untreated or incubated with […] honokiol for 12 h and then treated with 0.1 nM TNF for different times. Whole-cell extracts were prepared, and […] of the whole-cell lysate was analyzed by Western blotting using antibodies against IAP1, IAP2, bcl-x1, bcl-2, cFLIP, and survivin as indicated.
Western blot analysis. […] Cytoplasmic protein […] was resolved on 10% SDS-PAGE gel, transferred to a nitrocellulose membrane, blocked with 5% non-fat milk, and probed with specific antibodies against IkBa, posphorylated IkBa, p65, and phosphorylated p65. To determine the expression of cyclin D1, COX-2, MMP-9, cIAP-1, TRAF1, Bcl-2, Bfl-1, cFLIP, and survivin in whole-cell extracts of treated cells (2×10^6 cells in 2 ml of medium), […] of protein was resolved on SDS-PAGE and probed by Western blot with specific antibodies as per the manufacturer's recommended protocol. The blots were washed, exposed to HRP-conjugated secondary antibodies for 1 h, and finally detected by ECL reagent (Amersham Pharmacia Biotechnology, Piscataway, N.J.). The bands were quantified using a Personal Densitometer Scan v1.30 using Imagequant software version 3.3 (Molecular Dynamics). […]

MDA-MB-231 cells = experiment: Cell cycle assay (PI); type: cell-based; details: 24 hours (control 26%)
Method: (§2) Cell cycle assays: 5×10^6 cells were cultured in the appropriate culture media containing 10% FCS, and treated with either control vehicle or various concentrations of HNK as indicated for 24 h. Following treatment, the cells were harvested, fixed in methanol and stained with propidium iodide (PI, Abcam, Cambridge, Mass.). Flow cytometry was performed at the Flow Cytometry Core facility of Cedars-Sinai Medical Center, using FACScan (Becton Dickinson, Franklin Lakes, N.J.).
as §1

MCF-7 cells = experiment: Cell cycle assay (PI); type: cell-based; details: 24 hours (control 26%)
Method: as §2, §1

## C=CCc1ccc(O)c(-c2ccc(O)c(CC=C)c2)c1 [HNK, Honokiol]
COX2 promoter
  TNF-induced COX2 promoter activity: inhibited the TNF-induced COX2 promoter activity in a dose-dependent manner
[1]
  expression of G1 cell-cycle regulation proteins: reduced the levels of cyclin D1, and upregulated expression of the cyclin-dependent kinase inhibitors, p27Kip1 and p21Cip1/WAF1
[2]; H1299
  TNF-induced expression of VEGF, COX-2, ICAM-1 and MMP-9: abolished the expression
  TNF-induced expression of cyclin D1 and c-myc: abolished, in a time-dependent fashion, the TNF-induced expression of cyclin D1 and c-myc
[2]; cIAP1, cIAP-2, BCl-2, Bcl-xL, cFLIP, TRAF1, and survivin
  TNF-induced expression of anti-apoptotic gene products: inhibited the TNF-induced expression of all of these proteins
MDA-MB-231 cells; MDA-MB-231, 10 μM
  cells in S-phase: 15%
MDA-MB-231 cells; MDA-MB-231, 30 μM
  cells in S-phase: 10%
MCF-7 cells; MCF-7, 10 μM
  cells in S-phase: 20%
MCF-7 cells; MCF-7, 30 μM
  cells in S-phase: 20%

From US20080300298A1, “Honokiol Derivates For the Treatment of Proliferative Disorders” (priority 2005, published 2008)
